Laboratory results taken from US20220257491A1, “Prebiotic Oral Care Compositions and Methods” (Colgate-Palmolive Company, priority 2021, published 2022).
“And” between values parts separate entries of the source, which are not always exact repeats. Identical values can stand only once. Marks after values point to notes of the source that are not given here.

Key:
Format in all cases: cell-based
P. gingivalis = experiment: Multi-species biofilm composition: absolute abundance of P. gingivalis; conditions: mean±SD n=3
Method: (§1) Biofilms are grown vertically on Calcium Deficient Hydroxyapatite (CAD-HA) disks (Hitemco Medical, Old Bethpage, USA) using the Amsterdam Active Adhesion model. Biofilms are allowed to establish during 24 h (37° C., 170 rpm) under micro-aerophilic conditions (6% O2, 7% CO2, 7% H2, 80% N2). After this 24 h, disks are rinsed 3 times a day for 3 minutes (RT, 250 rpm), for 3 consecutive days, by transferring the lid containing the disks to a new 24-well plate containing 2 mL/well of the appropriate substrate solution. As a negative control, PBS (pH 5.7) without substrate supplementation is used. After each rinsing step, disks are shortly dip-rinsed in a new 24-well plate containing fresh modified BHI medium (2 mL/well) to remove remaining substrate traces. Subsequently, the lid is transferred to another 24-well plate containing fresh modified BHI medium (2 mL/well), followed by incubation (micro-aerophilic, 37° C., 170 rpm) until the next rinsing step.
(§2) NADM, N-acetyl-D-glucosamine (“NADG”) and D-(+)-mannose are selected to determine their effects on multi-species biofilm composition. […] decrease in absolute numbers in at least four of the pathogenic bacterial species tested in the assay, compared to the control, the results of which are described in Table 1 below. Absolute abundances of bacterial species are shown as mean±SD (n=3) logarithmic values of the genome equivalents per millilitre (log(Geq/mL)).

S. mutans = experiment: Multi-species biofilm composition: absolute abundance of S. mutans; conditions: for Absolute abundance S. mutans: mean±SD n=3
Method: as §1
(§3) NADM, N-acetyl-D-glucosamine (“NADG”) and D-(+)-mannose are selected to determine their effects on multi-species biofilm composition. Repeated rinsing of the biofilms with the substrates at a concentration of 1M results in a significant decrease in absolute numbers in at least four of the pathogenic bacterial species tested in the assay, compared to the control, the results of which are described in Table 1 below. Absolute abundances of bacterial species are shown as mean±SD (n=3) logarithmic values of the genome equivalents per millilitre (log(Geq/mL)).

A. naeslundii = experiment: Multi-species biofilm composition: absolute abundance of A. naeslundii; conditions: mean±SD n=3
Method: as §1, §3

S. gordonii = experiment: Multi-species biofilm composition: absolute abundance of S. gordonii; conditions: mean±SD n=3
Method: as §1, §3

S. salivarius = experiment: Multi-species biofilm composition: absolute abundance of S. salivarius; conditions: mean±SD n=3
Method: as §1, §3

multi-species biofilm = experiment: Relative multi-species biofilm composition (groups of bacterial species); conditions: mean±SD n=3
Method: as §1, §2
Relative abundances of the different groups (beneficial/commensals, periodontal pathogens, cariogenic pathogens) of bacterial species are shown as mean±SD (n=3) percentage of the genome equivalents per millilitre (% (Geq/mL)). […] NADM: N-acetyl-D-mannosamine; NADG: N-acetyl-D-glucosamine.

multi-species biofilms = experiment: Multi-species biofilm organic acid balances (supernatant); conditions: >0 production, <0 consumption, mean±SD n=3
Method: as §1
To examine the effect of NADM and the influence of the orientation and absence/presence of the N-acetyl group on organic acid production and consumption, supernatant samples from substrate-treated or untreated multi-species biofilms are analysed. […] When comparing relevant significant differences between substrate conditions, an increase in acetate production is observed for NADM compared to D-(+)-mannose (3084±174 vs. 1934±56 mg/L).

[1] = system: P. intermedia virulence genes; experiment: Multi-species biofilm virulence gene expression, SYBR RT-qPCR: P. intermedia; conditions: for Fold Change in virulence gene expression: DnaJ / Fold Change in virulence gene expression: DnaK / Fold Change in virulence gene expression: ECF / Fold Change in virulence gene expression: GroES / Fold Change in virulence gene expression: HtpG / Fold Change in virulence gene expression: KpsD / Fold Change in virulence gene expression: adpc / Fold Change in virulence gene expression: clpB / Fold Change in virulence gene expression: inpA / Fold Change in virulence gene expression: phg: relative to control (=1), 2^-ΔΔCt, geometric mean n=3
Method: as §1
The expression of 33 virulence genes from 4 periodontal pathogens is analysed to evaluate the relative virulence of the substrate-treated biofilms. For all three substrates, virulence gene expression is determined relatively to the control, and these values are also compared between substrates when this is relevant (Tables 5a-5d).

[2] = system: human oral keratinocytes (HOK-18A); experiment: Inflammatory mediator gene expression in keratinocytes exposed to substrate-treated biofilms; conditions: for Fold change in inflammatory mediator gene expression: IL-1β / Fold change in inflammatory mediator gene expression: IL-6 / Fold change in inflammatory mediator gene expression: IL-8 / Fold change in inflammatory mediator gene expression: MMP-8 / Fold change in inflammatory mediator gene expression: TNF-α: relative to control (=1), geometric mean (95% C.I.) n=3
Method: Cultures of immortalized human oral keratinocytes (HOK-18A) are grown. The relative inflammatory potential of the substrate-treated multi-species biofilms is evaluated by analyzing the expression of five inflammatory mediator genes in human oral keratinocytes (HOKs) exposed to the substrate-treated biofilms. […] The IL-8 levels in the cellular supernatant are determined as well. RNA is converted to cDNA and relative expression of inflammatory mediator genes is determined as described above with respect to the cellular housekeeping gene (3-actin.
In HOKs exposed to substrate-treated (substrate concentrations of 1 M) multi-species biofilms, mostly decreases in inflammatory mediator gene expression are observed and measured via SYBR RT-qPCR, the results of which are detailed in Table 6.
All substrates are dissolved in PBS at a concentration of 1 M (upper part) or 1% (w/v) (lower part). Values between 0 and 1 represent relative downregulation, values >1 represent relative upregulation. […] For such values, statistically significant differences between two experimental conditions are marked with ‘#1’ (vs. NADM), ‘#2’ (vs. NADG), ‘#3’ (vs. D-(+)-mannose) (P<0.05).

[3] = biofilm rinsed with substrate 1%
[4] = biofilm rinsed with substrate 1M

SMILES: CC(=O)N[C@@H]1C(O)O[C@H](CO)[C@@H](O)[C@@H]1O (stereo partly drawn) [NADM, N-acetyl-D-mannosamine]
- Absolute abundance Pg (P. gingivalis) (P. gingivalis; substrate 1%(w/v) in PBS): 7.06 ± 0.30 log(Geq/mL)
- Absolute abundance Pg (P. gingivalis) (P. gingivalis; substrate 1 M in PBS): 5.42 ± 0.23 log(Geq/mL)
- Decrease in S. mutans vs control (S. mutans; substrate 1%(w/v)): 0.5 log(Geq/mL)
- Absolute abundance S. mutans (S. mutans; substrate 1%(w/v) in PBS): 7.01 ± 0.05 log(Geq/mL)
- Change in S. mutans numbers compared to the control (S. mutans; substrate 1 M): −1.2 log(Geq/mL)
- Absolute abundance S. mutans (S. mutans; substrate 1 M in PBS): 7.41 ± 0.44 log(Geq/mL)
- Absolute abundance An (A. naeslundii) (A. naeslundii; substrate 1%(w/v) in PBS): 7.60 ± 0.22 log(Geq/mL)
- Absolute abundance An (A. naeslundii) (A. naeslundii; substrate 1 M in PBS): 6.73 ± 0.39 log(Geq/mL)
- Absolute abundance S. gord. (S. gordonii) (S. gordonii; substrate 1%(w/v) in PBS): 8.40 ± 0.10 log(Geq/mL)
- Absolute abundance S. gord. (S. gordonii) (S. gordonii; substrate 1 M in PBS): 8.94 ± 0.32 log(Geq/mL)
- Absolute abundance S. sal. (S. salivarius) (S. salivarius; substrate 1%(w/v) in PBS): 2.90 ± 0.36 log(Geq/mL)
- Absolute abundance S. sal. (S. salivarius) (S. salivarius; substrate 1 M in PBS): 3.34 ± 0.55 log(Geq/mL)
- Relative abundance Beneficials/Commensals (multi-species biofilm; substrate 1%(w/v) in PBS): 61.62 ± 4.88 % (Geq/mL)
- Relative abundance Cariogenic Pathogens (multi-species biofilm; substrate 1%(w/v) in PBS): 0.05 ± 0.01 % (Geq/mL)
- Relative abundance Periodontal Pathogens (multi-species biofilm; substrate 1%(w/v) in PBS): 38.32 ± 4.86 % (Geq/mL)
- Relative abundance Beneficial or commensals (multi-species biofilm; substrate 1 M in PBS): 97.61±0.28 % (Geq/mL)
- Relative abundance Cariogenic Pathogens (multi-species biofilm; substrate 1 M in PBS): 0.06 ± 0.04 % (Geq/mL)
- Relative abundance Periodontal Pathogens (multi-species biofilm; substrate 1 M in PBS): 2.34±0.31 % (Geq/mL) and 2.34 ± 0.31^#2, 3 % (Geq/mL)
- acetate level in biofilm supernatant (multi-species biofilms; substrate 1%(w/v)): 396 ± 11 mg/L
- butyrate level in biofilm supernatant (multi-species biofilms; substrate 1%(w/v)): 1989 ± 44 mg/L
- formate level in biofilm supernatant (multi-species biofilms; substrate 1%(w/v)): 3768 ± 174 mg/L
- lactate level in biofilm supernatant (multi-species biofilms; substrate 1%(w/v)): 125 ± 0 mg/L
- propionate level in biofilm supernatant (multi-species biofilms; substrate 1%(w/v)): 1891 ± 79 mg/L
- butyrate level in biofilm supernatant (multi-species biofilms; substrate 1 M): 541±52 mg/L and 541 ± 52*^, #2, 3 mg/L
- formate level in biofilm supernatant (multi-species biofilms; substrate 1 M): 791.9 ± 138.27 mg/L and 792 ± 138 mg/L
- lactate level in biofilm supernatant (multi-species biofilms; substrate 1 M): 125 ± 0 mg/L
- propionate level in biofilm supernatant (multi-species biofilms; substrate 1 M): 2052 ± 54 mg/L
- Relative P. intermedia virulence gene expression, downregulation ([1]; substrate 1%(w/v), D-(+)-mannose for 3 genes): 2.5- to 7.7 fold
- Fold Change in virulence gene expression: DnaJ ([1]; substrate 1%): 0.19 fold
- Fold Change in virulence gene expression: DnaK ([1]; substrate 1%): 0.31 fold
- Fold Change in virulence gene expression: ECF ([1]; substrate 1%): 0.13 fold
- Fold Change in virulence gene expression: GroES ([1]; substrate 1%): 0.51 fold
- Fold Change in virulence gene expression: HtpG ([1]; substrate 1%): 0.21 fold
- Fold Change in virulence gene expression: KpsD ([1]; substrate 1%): 0.35 fold
- Fold Change in virulence gene expression: adpc ([1]; substrate 1%): 0.21 fold
- Fold Change in virulence gene expression: clpB ([1]; substrate 1%): 0.40 fold
- Fold Change in virulence gene expression: inpA ([1]; substrate 1%): 0.28 fold
- Fold Change in virulence gene expression: phg ([1]; substrate 1%): 0.26 fold
- Fold Change in virulence gene expression: DnaJ ([1]; substrate 1M): 0.15 fold
- Fold Change in virulence gene expression: DnaK ([1]; substrate 1M): 0.70 fold
- Fold Change in virulence gene expression: ECF ([1]; substrate 1M): 0.55 fold
- Fold Change in virulence gene expression: GroES ([1]; substrate 1M): 0.45 fold
- Fold Change in virulence gene expression: HtpG ([1]; substrate 1M): 0.35 fold
- Fold Change in virulence gene expression: KpsD ([1]; substrate 1M): 0.41 fold
- Fold Change in virulence gene expression: adpc ([1]; substrate 1M): 0.70 fold
- Fold Change in virulence gene expression: clpB ([1]; substrate 1M): 0.40 fold
- Fold Change in virulence gene expression: inpA ([1]; substrate 1M): 0.64 fold
- Fold Change in virulence gene expression: phg ([1]; substrate 1M): 0.15 fold
- Fold change in inflammatory mediator gene expression: IL-1β [2, 3]: 0.83 (0.66-1.04) fold
- Fold change in inflammatory mediator gene expression: IL-6 [2, 3]: 0.73 (0.48-1.13) fold
- Fold change in inflammatory mediator gene expression: IL-8 [2, 3]: 1.32 (1.14-1.53) fold
- Fold change in inflammatory mediator gene expression: MMP-8 [2, 3]: 0.62 (0.21-1.84) fold
- Fold change in inflammatory mediator gene expression: TNF-α [2, 3]: 0.69 (0.48-1.00) fold
- Fold change in inflammatory mediator gene expression: IL-1β [2, 4]: 0.59 (0.30-1.14) fold
- Fold change in inflammatory mediator gene expression: IL-6 [2, 4]: 0.86 (0.34-2.18) fold
- Fold change in inflammatory mediator gene expression: IL-8 [2, 4]: 0.10 (0.05-0.17)* fold
- Fold change in inflammatory mediator gene expression: MMP-8 [2, 4]: 1.66 (0.82-3.35)* fold
- Fold change in inflammatory mediator gene expression: TNF-α [2, 4]: 0.73 (0.64-0.83) fold
- MMP-8 gene expression increase ([2]; substrate 1 M): 1.7 fold
